Molecular target: human NaV1.8 ion channel (Homo sapiens (Human), UniProt Q9Y5Y9)
Experiment: Compound inhibition activity on human NaV1.8 ion channel in HEK293 cells (whole-cell patch clamp)
Format: cell-based
Conditions: 100 nm concentration; HEK293 cells, resting protocol
Method: Test Case 1: Compound Inhibition Activity on Human NaV1.8 Ion Channel in HEK293 Cells
The final concentrations of the test compounds are prepared on the same day and then dissolved in extracellular solution. […] The intracellular solution (mM) contains: Aspartic acid, 140; MgCl2, 2; EGTA 11; HEPES, 10; pH 7.2 (CsOH titration). All test solutions contain 1 μM TTX.
The test solution are stored at a concentration of 3 mM in dimethyl sulfoxide (DMSO). The solutions will be dissolved in extracellular solution on the day of testing and prepared to the required concentration.
All experiments were performed at room temperature. Each cell itself is taken as the corresponding control.
At least one cell is tested per concentration.
HEK293 cell steady expressing NaV1.8 ion channel.
The intracellular fluid (mM) contains: Aspartic acid, 140; MgCl2, 2; EGTA 11; HEPES, 10; pH 7.2 (CsOH titration). […] Electrodes are drawn with PC-10 (Narishige, Japan). Recording is performed with whole-cell diaphragm clamp.
The cells are clamped at −80 mV and then depolarized to 10 mV with a sustained 10 ms square wave to give a Nav1.8 current. This procedure is repeated every 5 seconds.

Sequence of human NaV1.8 ion channel (Q9Y5Y9 whole entry): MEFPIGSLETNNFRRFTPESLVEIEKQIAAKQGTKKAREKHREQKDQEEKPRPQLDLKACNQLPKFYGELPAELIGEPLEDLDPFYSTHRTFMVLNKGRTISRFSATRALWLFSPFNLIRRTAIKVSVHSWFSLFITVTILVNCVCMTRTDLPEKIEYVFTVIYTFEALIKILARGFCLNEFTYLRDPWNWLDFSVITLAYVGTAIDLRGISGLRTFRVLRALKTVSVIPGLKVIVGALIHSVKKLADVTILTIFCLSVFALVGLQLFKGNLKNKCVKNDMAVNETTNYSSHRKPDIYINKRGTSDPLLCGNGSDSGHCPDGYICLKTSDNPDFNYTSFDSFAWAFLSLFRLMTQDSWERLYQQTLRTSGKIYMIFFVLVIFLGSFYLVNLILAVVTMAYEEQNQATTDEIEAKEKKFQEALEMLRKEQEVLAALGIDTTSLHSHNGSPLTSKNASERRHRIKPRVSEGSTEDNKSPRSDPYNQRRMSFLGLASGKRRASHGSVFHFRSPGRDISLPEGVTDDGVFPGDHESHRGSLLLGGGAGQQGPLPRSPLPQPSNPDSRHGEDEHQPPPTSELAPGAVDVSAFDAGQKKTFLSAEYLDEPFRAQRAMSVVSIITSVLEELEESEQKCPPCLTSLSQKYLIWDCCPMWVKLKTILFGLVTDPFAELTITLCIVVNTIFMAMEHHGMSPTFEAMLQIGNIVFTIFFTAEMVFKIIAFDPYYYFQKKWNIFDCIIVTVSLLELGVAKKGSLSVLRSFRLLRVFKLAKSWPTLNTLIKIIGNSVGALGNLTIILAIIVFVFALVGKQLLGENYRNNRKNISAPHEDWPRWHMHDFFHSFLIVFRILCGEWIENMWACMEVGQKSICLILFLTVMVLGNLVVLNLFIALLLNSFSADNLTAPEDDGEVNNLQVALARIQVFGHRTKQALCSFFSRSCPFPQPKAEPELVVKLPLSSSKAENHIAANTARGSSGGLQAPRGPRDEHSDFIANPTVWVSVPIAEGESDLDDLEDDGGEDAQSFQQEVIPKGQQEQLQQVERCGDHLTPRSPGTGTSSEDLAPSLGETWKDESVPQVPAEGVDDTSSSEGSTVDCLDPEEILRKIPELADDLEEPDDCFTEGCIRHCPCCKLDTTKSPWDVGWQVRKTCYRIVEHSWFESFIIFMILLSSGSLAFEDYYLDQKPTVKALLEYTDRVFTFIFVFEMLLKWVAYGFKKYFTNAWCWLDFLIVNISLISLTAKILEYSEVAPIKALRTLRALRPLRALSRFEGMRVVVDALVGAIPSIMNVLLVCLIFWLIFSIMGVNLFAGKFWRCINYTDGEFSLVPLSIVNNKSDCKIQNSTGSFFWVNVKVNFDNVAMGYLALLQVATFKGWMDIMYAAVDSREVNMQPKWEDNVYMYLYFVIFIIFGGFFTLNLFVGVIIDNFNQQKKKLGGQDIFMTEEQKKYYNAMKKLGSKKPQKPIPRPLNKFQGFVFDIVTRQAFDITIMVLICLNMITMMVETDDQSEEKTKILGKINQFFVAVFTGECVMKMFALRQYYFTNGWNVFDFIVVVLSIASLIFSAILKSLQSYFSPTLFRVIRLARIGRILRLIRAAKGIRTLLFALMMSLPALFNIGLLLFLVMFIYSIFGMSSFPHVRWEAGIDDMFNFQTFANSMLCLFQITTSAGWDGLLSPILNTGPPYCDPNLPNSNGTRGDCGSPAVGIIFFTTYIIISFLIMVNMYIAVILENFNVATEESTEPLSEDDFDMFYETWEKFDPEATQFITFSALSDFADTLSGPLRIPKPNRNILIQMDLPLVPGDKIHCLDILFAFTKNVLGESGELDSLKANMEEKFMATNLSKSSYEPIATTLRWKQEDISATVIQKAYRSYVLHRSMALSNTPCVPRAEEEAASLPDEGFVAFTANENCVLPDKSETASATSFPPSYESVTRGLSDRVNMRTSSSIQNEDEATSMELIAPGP

SMILES | Inhibition ratio of compounds against Nav1.8 (Activity of inhibition)
Cc1cc(F)ccc1Oc1cc(C2CC2)c(C(F)(F)F)cc1C(=O)Nc1ccnc(OCC(O)CO)c1 (stereo not shown) [Example 63, 4-Cyclopropyl-N-(2-(2,3-dihydroxypropoxy)pyridin-4-yl)-2-(4-fluoro-2-methylphenoxy)-5-(trifluoromethyl) benzamide] | B (80 > B >= 50)

Same assay, conditions: 100 nm concentration; HEK293 cells, resting protocol; read-out: Inhibition ratio of compounds against Nav1.8 (Activity of inhibition)

SMILES | inhibition at 0.1 µM
Cc1cc(F)ccc1Oc1cc(C2CC2)c(C(F)(F)F)cc1C(=O)Nc1ccc(F)c(OCC(O)CN)c1 (stereo not shown) [Example 57, N-(3-(3-amino-2-hydroxypropoxy)-4-fluorophenyl)-4-cyclopropyl-2-(4-fluoro-2-methylphenoxy)-5-(trifluoromethyl) benzamide] | > 80%
Cc1cc(F)ccc1Oc1cc(C2CC2)c(C(F)(F)F)cc1C(=O)Nc1ccc(F)c(OC2CC(N)C2)c1 (stereo not shown) [Example 58, N-(3-(3-aminocyclobutoxy)-4-fluorophenyl)-4-cyclopropyl-2-(4-fluoro-2-methylphenoxy)-5-(trifluoromethyl) benzamide] | 50 to 80%
Cc1cc(F)ccc1Oc1cc(C2CC2)c(C(F)(F)F)cc1C(=O)Nc1ccc(F)c(OCCNS(C)(=O)=O)c1 [Example 59, 4-cyclopropyl-2-(4-fluoro-2-methylphenoxy)-N-(4-fluoro-3-(2-(methylsulfonamido)ethoxy)phenyl)-5-(trifluoromethyl) benzamide] | 20 to 50%
Cc1cc(F)ccc1Oc1cc(C2CC2)c(C(F)(F)F)cc1C(=O)Nc1ccc(F)c(OCC(O)C(F)(F)F)c1 (stereo not shown) [Example 60, 4-cyclopropyl-2-(4-fluoro-2-methylphenoxy)-N-(4-fluoro-3-(3,3,3-trifluoro-2-hydroxypropoxy)phenyl)-5-(trifluoromethyl) benzamide] | < 20%
Cc1cc(F)ccc1Oc1cc(C2CC2)c(C(F)(F)F)cc1C(=O)Nc1ccc(F)c(OCC(=O)NCC(F)(F)F)c1 [Example 61] | 20 to 50%
Cc1cc(F)ccc1Oc1cc(C2CC2)c(C(F)(F)F)cc1C(=O)Nc1ccnc(OCC(O)CNC(C)(C)C)c1 (stereo not shown) [Example 64, N-(2-(3-(tert-butylamino)-2-hydroxypropoxy)pyridin-4-yl)-4-cyclopropyl-2-(4-fluoro-2-methylphenoxy)-5-(trifluoromethyl) benzamide] | 20 to 50%
Cc1cc(F)ccc1Oc1cc(C2CC2)c(C(F)(F)F)cc1C(=O)Nc1ccc(F)c(OCC(O)CNC(=O)CO)c1 (stereo not shown) [Example 65, 4-Cyclopropyl-2-(4-fluoro-2-methylphenoxy)-N-(4-fluoro-3-(2-hydroxy-3-(2-hydroxyacetylamino)propoxy)phenyl)-5-(trifluoromethyl) benzamide] | > 80%
Cc1cc(F)ccc1Oc1cc(C2CC2)c(C(F)(F)F)cc1C(=O)Nc1ccc(F)c(C(N)CCNC(C)(C)C)c1 (stereo not shown) [Example 66] | > 80%
Cc1cc(F)ccc1Oc1cc(C2CC2)c(C(F)(F)F)cc1C(=O)Nc1ccc(F)c(OCC(O)CNC(C)C)c1 (stereo not shown) [Example 67] | > 80%
Cc1cc(F)ccc1Oc1cc(C2CC2)c(C(F)(F)F)cc1C(=O)Nc1ccc(F)c(OCC2CCCN2)c1 (stereo not shown) [Example 68] | 20 to 50%
Cc1cc(F)ccc1Oc1cc(C2CC2)c(C(F)(F)F)cc1C(=O)Nc1ccnc(C(F)(F)F)c1 [Example 69] | 20 to 50%
Cc1cc(F)ccc1Oc1cc(C2CC2)c(C(F)(F)F)cc1C(=O)Nc1ccnc(C(C)(C)O)c1 [Example 70] | 20 to 50%
Cc1cc(F)ccc1Oc1cc(C2CC2)c(C(F)(F)F)cc1C(=O)Nc1ccc(F)c(OC2CC(O)C2)c1 (stereo not shown) [Example 71] | 50 to 80%
Cc1cc(F)ccc1Oc1cc(C2CC2)c(C(F)(F)F)cc1C(=O)Nc1ccc(F)c(C(CCO)N2CCCC2)c1 (stereo not shown) [Example 72] | 50 to 80%
Cc1cc(F)ccc1Oc1cc(C2CC2)c(C(F)(F)F)cc1C(=O)Nc1ccc(F)c(C(CCO)NS(C)(=O)=O)c1 (stereo not shown) [Example 73] | 20 to 50%
Cc1cc(F)ccc1Oc1cc(C2CC2)c(C(F)(F)F)cc1C(=O)Nc1ccc(F)c(OCc2ncc[nH]2)c1 [Example 74] | 50 to 80%
Cc1cc(F)ccc1Oc1cc(C2CC2)c(C(F)(F)F)cc1C(=O)Nc1ccc(F)c(OCc2nccs2)c1 [Example 75] | 50 to 80%
Cc1cc(F)ccc1Oc1cc(C2CC2)c(C(F)(F)F)cc1C(=O)Nc1ccc(F)c(OCC(N)=O)c1 [Example 76] | > 80%

SMILES | inhibition at 0.1 µM
Cc1cc(F)ccc1Oc1cc(C2CC2)c(C(F)(F)F)cc1C(=O)Nc1ccc(F)c(OCC(O)CNC(C)(C)C)c1 (stereo not shown) [Example 77] | > 80%
Cc1cc(F)ccc1Oc1cc(C2CC2)c(C(F)(F)F)cc1C(=O)Nc1ccc(F)c(OCC(O)CNC2CC2)c1 (stereo not shown) [Example 78] | > 80%
Cc1cc(F)ccc1Oc1cc(C2CC2)c(C(F)(F)F)cc1C(=O)Nc1ccc(F)c(OCC(O)CN2CCCC2)c1 (stereo not shown) [Example 79] | 20 to 50%
Cc1cc(F)ccc1Oc1cc(C2CC2)c(C(F)(F)F)cc1C(=O)Nc1ccc(F)c(OCC2CNCCO2)c1 (stereo not shown) [Example 80] | 50 to 80%
CC(=O)NCC(O)COc1cc(NC(=O)c2cc(C(F)(F)F)c(C3CC3)cc2Oc2ccc(F)cc2C)ccc1F (stereo not shown) [Example 81] | 50 to 80%
Cc1cc(F)ccc1Oc1cc(C2CC2)c(C(F)(F)F)cc1C(=O)Nc1cccc(OCC(O)CNC(C)C)c1 (stereo not shown) [Example 82] | > 80%
Cc1cc(F)ccc1Oc1cc(C2CC2)c(C(F)(F)F)cc1C(=O)Nc1ccc(F)c(OC2CCC(CO)OC2)c1 (stereo not shown) [Example 84] | 20 to 50%
Cc1cc(F)ccc1Oc1cc(C2CC2)c(C(F)(F)F)cc1C(=O)Nc1ccc(F)c(OC2CCC(CN)OC2)c1 (stereo not shown) [Example 85] | 20 to 50%
Cc1cc(F)ccc1Oc1cc(C2CC2)c(C(F)(F)F)cc1C(=O)Nc1ccc(F)c(OCC(O)CNC2(C(=O)O)CC2)c1 (stereo not shown) [Example 86] | 20 to 50%
Cc1cc(F)ccc1Oc1cc(C2CC2)c(C(F)(F)F)cc1C(=O)Nc1ccc(F)c(OCC(O)CNCC(F)(F)F)c1 (stereo not shown) [Example 87] | 50 to 80%
Cc1cc(F)ccc1Oc1cc(C2CC2)c(C(F)(F)F)cc1C(=O)Nc1ccc(F)c(OCC(=O)NC2(C(F)(F)F)CC2)c1 [Example 89] | 50 to 80%
Cc1cc(F)ccc1Oc1cc(C2CC2)c(C(F)(F)F)cc1C(=O)Nc1ccc(F)c(OCC(O)CO)c1 (stereo not shown) [Example 90] | 50 to 80%
Cc1cc(F)ccc1Oc1cc(C2CC2)c(C(F)(F)F)cc1C(=O)Nc1ccc(F)c(OCC(O)CNC(C)C(F)(F)F)c1 (stereo not shown) [Example 91] | 20 to 50%
Cc1cc(F)ccc1Oc1cc(C2CC2)c(C(F)(F)F)cc1C(=O)Nc1ccc(F)c(OCC(O)CNc2ccccc2)c1 (stereo not shown) [Example 92] | 20 to 50%
Cc1cc(F)ccc1Oc1cc(C2CC2)c(C(F)(F)F)cc1C(=O)Nc1ccc(F)c(OCC(O)CNC23CC(C2)C3)c1 (stereo not shown) [Example 93] | 50 to 80%
Cc1cc(F)ccc1Oc1cc(C2CC2)c(C(F)(F)F)cc1C(=O)Nc1ccc(F)c(OCC(O)CNC23CC4CC(CC(C4)C2)C3)c1 (stereo not shown) [Example 94] | 50 to 80%
COc1ccc(NCC(O)COc2cc(NC(=O)c3cc(C(F)(F)F)c(C4CC4)cc3Oc3ccc(F)cc3C)ccc2F)cc1 (stereo not shown) [Example 95] | 20 to 50%

Same assay, conditions: HEK293, read-out: Inhibition ratio of compounds against Nav1.8 (Activity of inhibition)

SMILES | inhibition at 0.1 µM
Cc1cc(F)ccc1Oc1cc(C2CC2)c(C(F)(F)F)cc1C(=O)Nc1ccc(F)c(OCCOC(N)=O)c1 [Example 62, (2-(5-(4-Cyclopropyl-2-(4-fluoro-2-methylphenoxy)-5-(trifluoromethyl)benzamido)-2-fluorophenoxy)ethyl) carbamate] | 50 to 80%

Source: patent US20230303497A1, “BENZYLAMINE OR BENZYL ALCOHOL DERIVATIVE AND USES THEREOF” (CHENGDU HYPERWAY PHARMACEUTICALS CO., LTD, priority 2020, published 2023)
